Converted amounts (≈) assume the structure as drawn.
How the values were obtained:
[1] = NBT assay of antioxidant activity (superoxide scavenging); type: biochemical; conditions: NBT Test (O2^-•); read-out: Scavenging activity of the free radicals IC50
Description: For the inactivation of bacteria by heat, one started at a concentration of 4×10^9 CFU/mL. The bacteria were then centrifuged at 4000 rpm for 10 minutes, the supernatant discarded and replaced with 1 ml of 0.9% NaCl saline solution. The heat inactivation occurred at the temperature of 85°C for 15 minutes.
NBT assay (nitrobluetetrazolium) evaluates the capability of locking the formation of the superoxide radical ^·O2^-; the more ^·O2^- is produced, the more NBT is reduced in formazan. The capability of molecules and compounds to inhibit the NBT reduction by ^·O2^- in presence of β-nicotinammide adenin dinucleotide (β-NADH) and phenazinamethosulfate (PM) is then tested.
The spectrophometric reading was performed by kinetics, by measuring the OD values (λmax 560 nm) immediately and after 15 sec. The absorbance variation was used to calculate the inhibition percentage with respect to the control (solution of EtOH and of the solvent in which the different samples are dissolved).
To this purpose, on previously heat inactivated mixtures of bacteria, 8 serial dilutions were performed according to the scheme reported in figure 1; 20 µL of each dilution were then used in all assays of antioxidant activity according to the protocol indications.

L. reuteri LMG P-27481 = test: Tolerance test: vitality of L. reuteri LMG P-27481 in presence of resveratrol in simulated saliva; type: cell-based, Lactobacillus (Limosilactobacillus) reuteri
Description: The simulated saliva (SS) was prepared with 8 g/l of sodium chloride, 0.19 g/l monobasic potassium phosphate, 2.38 g/l sodium phosphate (pH 6.8) and then sterilized (Alanzi et al., 2018). The cryopreserve stock of L. reuteri LMG P-27481 strain was controlled in order to verify the purity thereof and then cultivated on MRS Broth (De Man Rogosa Sharpe, Difco) under microaerophilic conditions at 37°C for 18 hours. The cultures in MRS broth of L. reuteri LMG P-27481 grown under microaerophilic conditions at 37°C for 18 hours were centrifuged, the supernatant discarded an the pellets were washed with sterile demineralized water. […] A test tube with only SS was used as positive control of survival. L. reuteri LMG P-27481 was analysed according to the standard of Mc Farland in order to obtain a vital load of 3×10^8 CFU/ml in the test tubes. […] Aliquots were collected after 5, 10, 30 and 60 minutes for determining vitality. All plates were incubated for 72 hours at 37°C under anaerobic conditions.

loricrin (LOR) = test: Gene expression by real-time PCR in 3D model of in vitro reconstituted skin (EpiDermFT); type: cell-based; conditions: vs control
Excerpt: (§1) Evaluation of the gene expression of some cytokines (IL-25, IL-33, IL-37) and of filaggrin (FLG), involucrin (IVL) and loricrin (LOR) in a complex 3D model of in vitro reconstituted skin (EpiDermFT - MATTEK).
(§2) The 3D models of in vitro reconstituted skin constitute optimum systems capable of simulating well the functionalities of a complex organ such as skin and the interactions which are established between numerous cell populations composing it. Then, they try to free from the excessive simplification represented by one single cell line put in culture. The cytokines IL-25 and IL-33 are pro-inflammatory cytokines over-produced by the keratinocytes and by the surface layers of the skin after an insult; on the contrary the cytokine IL-37 is an anti-inflammatory cytokine. At last, the proteins filaggrin (FLG), involucrin (IVL) and loricrin (LOR), are proteins produced by epidermis, fundamental in the constitution of the barrier which protects from external agents and respond to cytokine signals. In particular, during an inflammatory event, the expression of these genes is sub-regulated; on the contrary, an anti-inflammatory state tends to over-express the genes FLG, IVL, LOR.
(§3) The extraction of total RNA was performed by QlAzol Lysis Reagent by following the instructions provided by the firm (Qiagen). The retro-transcription reactions were performed on 4 µg of total RNA by following the instructions provided by the protocol of the kit PROMEGA "GoTaq 2 Step RT qPCR System". The amplification for determining the gene expression, by real-time PCR technique, was performed on BioRad CFX96 machine and the related quantification was performed by the method of 2^-ΔΔCt.

involucrin (IVL) = test: as above; type: cell-based; conditions: vs control
Excerpt: as §1, §2, §3

filaggrin (FLG) = test: as above; type: cell-based; conditions: vs control
Excerpt: as §1, §2, §3

IL-37 = test: as above; type: cell-based; conditions: vs control, after 24 hours
Excerpt: as §1, §2, §3

[2] = system: Streptococcus pneumoniae DSM 20566; test: MIC determination by plate microdilution; type: cell-based; conditions: DSM20566, S. pneumoniae, 24 hours at 37°C
Description: (§4) The supernatant from Streptococcus salivarius K12 was used as reference. To this purpose, the Minimum Inhibitory Concentration (MIC) was evaluated. The pathogen microorganisms were the following ones: Staphylococcus aureus NCTC 6571, Streptococcus pyogenes LMG 21599, Streptococcus pneumoniae DSM 20566, Moraxella chatarralis DSM 9143, Haemophilus influenzae DSM 4690.
(§5) L. reuteri LMG P-27481 and S. salivarius K12 were subcultivated on agar plates from cryopreserved cultures. All pathogens, except for H. influenzae DSM 4690, were cultivated on agar BHI (Brain Heart Infusion, Oxoid). The subculture of H. influenzae DSM 4690 requested the presence of traces of lysed red blood cells in the medium.
(§6) In short, the supernatants were obtained for centrifugation of liquid cultures of L. reuteri LMG P27481 and S. salivarius K12, sterilized by filtration. The aliquots were diluted in series for determining the vital count. The supernatants were diluted in series from 100% to 0.19% (v:v).
(§7) The pathogen strains were dosed optically by using the spectrophotometer at OD600 between 0.08-0.100 and diluted 100 times in Schaedler broth or sterile supernatants (to obtain the concentration of 100%).
(§8) All samples were incubated for 24 hours at 37°C under aerobic conditions for all strains except for H. influenzae DSM 4690 which required anaerobiosis conditions.
(§9) Moreover, a control with serial dilutions of DMSO was performed in order to exclude that the presence of this diluent could exert an inhibitory effect on the pathogens.

[3] = system: Staphylococcus aureus NCTC 6571; test: MIC determination by plate microdilution; type: cell-based; conditions: NCTC6571, S. aureus, 24 hours at 37°C
Description: as §4, §5, §6, §7, §8, §9

[4] = system: Moraxella chatarralis DSM 9143; test: MIC determination by plate microdilution; type: cell-based; conditions: DSM9143, M. chatarralis, 24 hours at 37°C
Description: as §4, §5, §6, §7, §8, §9

[5] = system: Haemophilus influenzae DSM 4690; test: MIC determination by plate microdilution; type: cell-based; conditions: DSM4690, H. influenzae, 24 hours at 37°C, anaerobiosis
Description: as §4, §5, §6, §7, §8, §9

[6] = system: Streptococcus pyogenes LMG 21599; test: MIC determination by plate microdilution; type: cell-based; conditions: LMG21599, S. pyogenes, 24 hours at 37°C
Description: as §4, §5, §6, §7, §8, §9

all tested pathogens = test: MIC determination, summary over all tested pathogens; type: cell-based; conditions: range over all tested pathogens
Description: as §4, §5, §6, §7
All samples were incubated for 24 hours at 37°C under aerobic conditions for all strains except for H. influenzae DSM 4690 which required anaerobiosis conditions. […]

HaCat. cells = type: cell-based
Excerpt: MTT test is a colorimetric assay which exploits the capability of cells to convert, at mitochondrial level, the bromide of 3-(4,5-dimethylthiazol-2-il)-2,5-diphenyltetrazolium in the related salt, by evaluating the cell viability. The produced salt is solubilized in organic solvent in order to obtain a homogeneous solution in the single well, measurable spectrophotometrically. Besides, the crystal violet assay is based upon the capability of the homonymous […] dye to bind to DNA of the cells in culture and to return in this way a reliable estimation of the number of cells. […] Before colouring, washings in PBS were carried out. 50 µL of dye (MTT (5 mg/mL in PBS); Crystal violet (2,5 mg/mL in MeOH 20%)) were then added to each well and left in incubation at 37°C for 2 hours (MTT) or stirred on tilting plate for 20 min (Crystal violet). The exceeding dye was washed and the dye was solubilized in organic solvent (DMSO) in order to obtain a homogenous solution in the single well, measurable spectrophotometrically. The measurement of absorbance of the single wells was performed in a plate reader, at the wavelength of 570 nm, by normalizing the values with respect to the control.

Structure (SMILES): O=C1O[C@H]([C@@H](O)CO)C(O)=C1O [Ascorbic Acid]
- IC50 [1]: 665 ± 26 µM

Structure (SMILES): Oc1ccc(/C=C/c2cc(O)cc(O)c2)cc1 [Resveratrol, 3,5,4'-trihydroxy-trans-stilbene]
- %S (% of survival of microorganisms) (L. reuteri LMG P-27481; SS + 0.5 mg/ml Resveratrol, T5): 99.9%
- %S (% of survival of microorganisms) (L. reuteri LMG P-27481; SS + 0.5 mg/ml Resveratrol, T10): 99.6%
- %S (% of survival of microorganisms) (L. reuteri LMG P-27481; SS + 0.5 mg/ml Resveratrol, T30): 99.3%
- %S (% of survival of microorganisms) (L. reuteri LMG P-27481; SS + 0.5 mg/ml Resveratrol, T60): 99.2%
- %S (% of survival of microorganisms) (L. reuteri LMG P-27481; SS + 1 mg/ml Resveratrol, T5): 99.8%
- %S (% of survival of microorganisms) (L. reuteri LMG P-27481; SS + 1 mg/ml Resveratrol, T10): 99.6%
- %S (% of survival of microorganisms) (L. reuteri LMG P-27481; SS + 1 mg/ml Resveratrol, T30): 99.6%
- %S (% of survival of microorganisms) (L. reuteri LMG P-27481; SS + 1 mg/ml Resveratrol, T60): 99.4%
- %S (% of survival of microorganisms) (L. reuteri LMG P-27481; SS + 2.5 mg/ml Resveratrol, T5): 99.9%
- %S (% of survival of microorganisms) (L. reuteri LMG P-27481; SS + 2.5 mg/ml Resveratrol, T10): 99.6%
- %S (% of survival of microorganisms) (L. reuteri LMG P-27481; SS + 2.5 mg/ml Resveratrol, T30): 99.5%
- %S (% of survival of microorganisms) (L. reuteri LMG P-27481; SS + 2.5 mg/ml Resveratrol, T60): 99.2%
- %S (% of survival of microorganisms) (L. reuteri LMG P-27481; SS + 5 mg/ml Resveratrol, T5 (5 minutes contact), 3×10^8 CFU/ml): 99.7%
- %S (% of survival of microorganisms) (L. reuteri LMG P-27481; SS + 5 mg/ml Resveratrol, T10): 99.5%
- %S (% of survival of microorganisms) (L. reuteri LMG P-27481; SS + 5 mg/ml Resveratrol, T30): 99.3%
- %S (% of survival of microorganisms) (L. reuteri LMG P-27481; SS + 5 mg/ml Resveratrol, T60): 99.0%
- %S (% of survival of microorganisms) (L. reuteri LMG P-27481; SS + 5 mg/ml Resveratrol, T60, listed as resveratrol): higher than 99%
- expression of LOR (loricrin (LOR)): minimum expression variations
- expression of IVL (involucrin (IVL)): minimum expression variations
- expression of FLG (filaggrin (FLG)): minimum expression variations
- expression of IL-37 (IL-37): under-expression
- MIC [2]: 80 µg/mL (≈ 350 µM)
- MIC [3]: 160 µg/mL (≈ 701 µM)
- MIC [4]: 160 µg/mL (≈ 701 µM)
- MIC [5]: 80 µg/mL (≈ 350 µM)
- MIC [6]: 160 µg/mL (≈ 701 µM)
- inhibiting concentrations (all tested pathogens): 80 to 160 µg/mL
- cell count (crystal violet) (HaCat. cells): decrease in vitality and cell count
- cell viability (MTT) (HaCat. cells): decrease in vitality
